Assay results published in the RepoRT retention time repository.

Assay: Agilent ZORBAX 300 SB-C18, 150 × 1 mm, 3.5 µm; A: water + 0.01% heptafluorobutyric acid; B: acetonitrile + 0.01% heptafluorobutyric acid; gradient (min/%B) 0/0 100/90
Conditions: stereoisomer not certain

Row | SMILES | LC retention time
1 | Cc1cccc(NC(=O)C(Cc2c[nH]c3ccccc23)NC(=O)C(c2ccccc2)c2ccccc2)c1C (configuration not stated) | 16.7 min
2 | CCC(=O)Nc1ccc(N2CCN(C(=O)C(C)C)CC2)cc1 | 9.46 min
3 | Nc1cccc(CCC(=O)O)c1 | 7.06 min
4 | COc1ccc(C(=O)C=Cc2ccccc2)cc1 | 15.7 min
5 | O=C(O)c1ccc2c(c1)C1C=CCC1C(c1cccc3ccccc13)N2 (configuration not stated) | 16.1 min
6 | NC(CO)c1ccccc1 (configuration not stated) | 7.02 min
7 | Cc1ccc(OCCOCn2c(C)cc(=O)[nH]c2=O)cc1 | 11 min
8 | COCCCN | 5.72 min
9 | COc1ccc(OC)c2c1C(c1cccc(N)c1)OC1CCCCC21 (configuration not stated) | 12.9 min
10 | NCCCCCCN | 6.78 min
11 | COc1ccc(CNCc2ccc(C(C)C)cc2)cc1 | 11.5 min
12 | Cc1ccc(C(=O)Cn2c(=N)n(C)c3ccccc32)cc1 | 10.6 min
13 | Cc1cccc(C)c1NC1=NCCCS1 | 9.58 min
14 | CC1CCCN1 (configuration not stated) | 5.96 min
15 | CCNc1ccccc1 | 7.68 min
16 | CCN1CCN(Cc2cc(C)cc(C=O)c2C)CC1 | 9.37 min
17 | Cc1cc(C)nc(Nc2n[nH]c(C)n2)n1 | 8.05 min
18 | Cc1ccc(-c2nn[nH]n2)cc1 | 9.59 min
19 | Cn1c(=O)c2n[nH]c(=S)nc2n(C)c1=O | 7.17 min
20 | CSC1=NC(C)(C)Cc2c(C)cccc21 | 9.67 min
21 | Cc1cc(C)c(-c2csc(N)n2)c(C)c1 | 8.82 min
22 | Nc1ccccc1C(=O)N1CCc2ccccc21 | 12.4 min
23 | Cc1cc(C)c2[nH]c3c(c2c1)CCCC3=O | 14.8 min
24 | O=C(NN=Cc1ccc(OCc2ccccc2)cc1)c1ccc(-c2ccccc2)cc1 | 16.9 min
25 | CN(C)CCN(C)C | 7.04 min

Row | SMILES | LC retention time
26 | CCCNC1CCN(C(C)=O)CC1 | 6.77 min
27 | CC12CCC(O)CC1=CCC1C2CCC2(C)C(N)CCC12 (configuration not stated) | 8.88 min
28 | CCOC(=O)c1ccc2[nH]c3c(c2c1)CCCC3C(=O)OCC (configuration not stated) | 16.2 min
29 | c1ccc(-n2ncc(-c3nn[nH]n3)n2)cc1 | 10.5 min
30 | Cc1ncc[nH]1 | 4.53 min
31 | CNC(=S)NNC(C)=O | 2.17 min
32 | S=C(Nc1ccccc1)N1CCCCC1 | 12.3 min
33 | c1ccc(N(c2ccccc2)c2ccccc2)cc1 | 20.2 min
34 | O=C(O)CC(CC(=O)O)c1ccccn1 | 5.88 min
35 | c1cncc(-c2nnco2)c1 | 6.78 min
36 | COC(=O)C(N)CO (configuration not stated) | 4 min
37 | Nc1ccccc1N | 6.66 min
38 | c1ccnnc1 | 4.58 min
39 | CCOC(=O)C1CCC(=O)N1 (configuration not stated) | 6.88 min
40 | O=c1c2ccccc2nnn1Cc1ccncc1 | 8.31 min
41 | CC(=NNC(=O)CNC(=O)c1ccco1)c1ccc(C(C)(C)C)cc1 | 13.9 min
42 | O=C(O)CCCc1ccncc1 | 6.69 min
43 | CC(C)CC(N)C(N)=O (configuration not stated) | 6.71 min
44 | CNCCN | 6.51 min
45 | C=CCNC1(c2ccccc2)CCCCC1 | 9.71 min
46 | O=C(C(=O)c1cccs1)c1ccccc1 | 14.4 min
47 | Cc1cccc(-n2c(C)cc(C=NNC(N)=S)c2C)c1C | 14.4 min
48 | CC(=O)CNC(C)(C)C | 6.35 min
49 | CC(=O)NCC(NC(C)=O)C(C)(C)C (configuration not stated) | 7.28 min
50 | CC(=O)C1(O)CCC2C3CC(C)C4=CC(=O)CCC4(C)C3CCC21C (configuration not stated) | 15.2 min

Row | SMILES | LC retention time
51 | O=C(Nc1ccccc1)C(=O)NC(CO)(CO)CO | 8.16 min
52 | c1ccc2c(c1)Cc1cc3ccccc3nc1-2 | 11.4 min
53 | COc1ccc2cc3[n+](cc2c1OC)CCc1cc2c(cc1-3)OCO2 | 10.6 min
54 | Cc1cccc2cc[nH]c12 | 12.6 min
55 | Cn1c(-c2c(-c3ccc4ccccc4n3)cnc3ccccc23)nc2ccccc21 | 12.3 min
56 | CN(C)CCCOc1nn(Cc2ccccc2)c2ccccc12 | 11.2 min
57 | CCCCc1ccc(NC(=O)Cc2ccc(OC)c(OC)c2)cc1 | 15.6 min
58 | COc1ccc2c(=O)c(C)c(-c3ccccc3)oc2c1CN(C)C | 10.1 min
59 | Cc1ccc(-n2cccc2)c(O)c1 | 13.1 min
60 | CN1CCC(=O)C2CCCCC21 (configuration not stated) | 7.15 min
61 | CNCc1cccc(C)c1 | 8.02 min
62 | CCC(C)C(NC(=O)C1CCCN1)C(=O)O (configuration not stated) | 7.86 min
63 | Cc1cc(=O)[nH]c2c(C)c(N)ccc12 | 8.42 min
64 | CC(=O)Nc1ccc(O)cc1 | 6.65 min
65 | CCOC(=O)c1cnc2ccccc2n1 | 10.7 min
66 | NC(=O)N1CCC(CCCC2CCN(C(N)=O)CC2)CC1 | 9.11 min
67 | O=C(O)CCc1ccc(-c2ccccc2)[nH]1 | 11.9 min
68 | Cc1[nH]c(C)c(C(=O)Nc2ccccc2)c1C | 11.9 min
69 | CCOC(=O)CC(=O)Nc1ccc(C(=O)OC)cc1 | 11.1 min
70 | NC(=O)c1ccccc1NC(=O)CN1CCCC1 | 7.36 min
71 | CCCCCC[N+](C)(C)C | 8.47 min
72 | CN1c2ccccc2CCc2cc(C=O)ccc21 | 16.3 min
73 | CCc1ccc(N2CC(C(=O)O)CC2=O)cc1 (configuration not stated) | 10.5 min
74 | COCCc1ccc(OCC(O)CNC(C)C)cc1 (configuration not stated) | 9.27 min
75 | O=CN1CCCCC1 | 7.47 min

Row | SMILES | LC retention time
76 | NCCCCCCNCCCCCCN | 7.37 min
77 | CC(Nc1ccc2ccccc2c1)C(=O)NN=Cc1c2ccccc2cc2ccccc12 (configuration not stated) | 17.5 min
78 | Cc1ccc(-c2csc(-c3cccnc3)n2)cc1C | 11.3 min
79 | CC(C)(CO)Nc1c[nH]c(=O)[nH]c1=O | 6.01 min
80 | Cc1cccnc1CN1CCN(Cc2ncccc2C)CC1 | 7.69 min
81 | c1ccc2c(c1)ccc1cccnc12 | 12.7 min
82 | COC(=O)CC1CC(C)(C)NC(C)(C)C1 | 8 min
83 | Nc1ccc(NC(=O)c2cccc(C(=O)Nc3ccc(N)cc3)c2)cc1 | 7.98 min
84 | O=C(NCCc1ccco1)c1cccc2c1oc1ccccc12 | 15.7 min
85 | NCC(O)CO (configuration not stated) | 2.77 min
86 | S=c1[nH]c(-c2ccccc2)c(-c2ccccc2)n1-c1ccccc1 | 14.4 min
87 | CNC(=S)NNC(=O)Cc1cccc2ccccc12 | 10.3 min
88 | CC(C)N1CCNCC1 | 6.94 min
89 | O=C1NCCCC1C(=O)N1CCN(C(=O)c2ccco2)CC1 (configuration not stated) | 7.34 min
90 | CCCCN1CCCC1 | 7.55 min
91 | CCCCc1ccc(-n2c(CCC(=O)O)ccc2-c2ccccc2)cc1 | 18.1 min
92 | CC(C)(C)Nc1ncnc2ccccc12 | 9.02 min
93 | Cc1c(N)cccc1N | 6.51 min
94 | c1ccc2c(Sc3nccc4ccccc34)nccc2c1 | 14.4 min
95 | COc1ccccc1-n1c(=O)n2n(c1=O)CCCC2 | 9.12 min
96 | CC1(C)CC(NCC(=O)NC2CC(C)(C)NC(C)(C)C2)CC(C)(C)N1 | 7.71 min
97 | O=C(O)CCCC(=O)Nc1ccccc1 | 8.72 min
